Data on 1 compound can be found in paper PMC4916434, “Evaluation of the inhibition potential of plumbagin against cytochrome P450 using LC-MS/MS and cocktail approach” (Scientific Reports, 2016).

Structures are written as SMILES.

For one data set, the target named is T1, CYP2C9 (Homo sapiens, UniProt P11712).
T1 construct: consisting of pooled HLMs (0.5 mg/ml) or RLMs (1 mg/ml) and an NADPH-regenerating system; tissue Corning Gentest Corporation; host or cells: pooled human liver microsomes (n = 20)
T1 sequence (P11712 whole entry): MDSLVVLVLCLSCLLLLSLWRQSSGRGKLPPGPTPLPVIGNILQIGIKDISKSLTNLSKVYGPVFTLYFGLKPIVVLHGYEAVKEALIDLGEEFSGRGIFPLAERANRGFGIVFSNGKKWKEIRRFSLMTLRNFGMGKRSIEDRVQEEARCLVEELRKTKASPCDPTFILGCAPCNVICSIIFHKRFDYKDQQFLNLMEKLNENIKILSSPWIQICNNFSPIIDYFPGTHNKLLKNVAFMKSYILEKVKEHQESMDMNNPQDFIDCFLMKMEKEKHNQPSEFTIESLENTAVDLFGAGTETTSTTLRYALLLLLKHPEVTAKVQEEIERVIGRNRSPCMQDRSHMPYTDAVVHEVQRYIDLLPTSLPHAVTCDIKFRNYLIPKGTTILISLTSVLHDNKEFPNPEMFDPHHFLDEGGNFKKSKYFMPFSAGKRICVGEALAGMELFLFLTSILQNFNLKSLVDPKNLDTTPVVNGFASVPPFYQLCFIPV
Put plainly: CYP2C9 inhibition (tolbutamide methyl-hydroxylation) in pooled human liver microsomes, cocktail LC-MS/MS. Type of data set: in vitro ADME. Here is the method:
(§1) Microsomal incubation was carried out at 37 °C in a mixture of 200 μl in 0.05 M Tris/HCl buffer (pH 7.4) consisting of pooled HLMs (0.5 mg/ml) or RLMs (1 mg/ml) and an NADPH-regenerating system including MgCl2 (5 mM), G6P (10 mM), G6PDH (0.4 U/ml) and NADP (1 mM). Substrates were added into the incubation mixture and obtained the final concentrations (10 μM phenacetin for CYP1A2, 20 μM bupropion for CYP2B1/6, 20 μM tolbutamide for CYP2C9/11, 5 μM dextromethorphan for CYP2D1/6, 20 μM chlorzoxazone for CYP2E1 and 10 μM midazolam for CYP3A2/4), which were close to Km respectively. The proportion of organic solvent was not higher than 1% (v/v) in the incubation mixture. After pre-incubation for 5 min, the reaction was initiated by addition of NADP. Incubations were performed for 20 min, stopped by adding 200 μl ice-cold acetonitrile. And then 20 μl internal standard solution was added (3-acetamidophenol 2 μg/ml, chlorpropamide 2 μg/ml and mebendazole 2 μg/ml). The solution was mixed thoroughly for 3 min and centrifuged for 10 min at 16,000 × g at 4 °C. The supernatant (60 μl) was transferred to autosampler vials, and 2 μl was injected into LC-MS/MS system.
(§2) The IC50 (concentration of inhibitor to cause 50% inhibition of original enzyme activity) values were determined with the same incubation condition above. The specific concentrations of plumbagin were ranged from 0.1 μM to 50 μM. The IC50 values were calculated by plotting relative activities over the logarithm of plumbagin concentrations using GraphPad Prism 5.0 (GraphPad software Inc., CA, USA).
(§3) Cocktail probe substrates were then added and incubated for 20 min. Reactions were stopped with 200 μl ice-cold acetonitrile. The samples were treated according to the microsomal incubation method and then injected into LC-MS/MS for analysis.
(§4) Kinetic studies were performed for determining the types of inhibition on CYP by plumbagin. Pooled HLMs (0.5 mg/ml) or RLMs (1 mg/ml) with plumbagin (1 μM, 2 μM, 5 μM and 10 μM) were incubated in 0.05 M Tris/HCl buffer (pH 7.4) for 20 min at 37 °C. A series of concentrations for cocktail probe substrates were used: 2.5–20 μM phenacetin for CYP1A2; 5–40 μM bupropion for CYP2B1/6; 5–40 μM tolbutamide for CYP2C9/11; 1.25–10 μM dextromethorphan for CYP2D1/6; 5–40 μM chlorzoxazone for CYP2E1; 2.5–80 μM midazolam for CYP3A2; and 0.625–5 μM midazolam for CYP3A4. Enzyme kinetics as well as statistical analysis were performed using GraphPad Prism 5.0.
(§5) All data were presented as mean ± SD. The IC50 values were fitted by non-linear regression analysis using GraphPad Prism 5.0. The kinetic parameters were obtained by fitting velocity data to kinetic models (Michaelis-Menten) using GraphPad Prism 5.0. The Lineweaver-Burk Plot (the reciprocal of reaction velocities versus the reciprocal of substrates concentrations) was used to determine the quality of fit to a specific inhibition model. The inhibition constant (Ki) was obtained by a secondary plot using the slopes of the primary Lineweaver-Burk Plot (Km/Vmax versus inhibitor concentrations). αKi was obtained from a secondary plot using the y-intercepts of the Lineweaver-Burk plot (1/Vmax versus inhibitor concentrations). All results were analyzed in quadruplicate. One-way analysis of variance was used to estimate the significance of differences. There was statistical significance between control and test groups if p < 0.05.
(Liver microsomes are a subcellular fraction often used to study metabolism.)

Another data set concerns the target T2, CYP2E1 (Homo sapiens, UniProt P05181).
T2 construct: consisting of pooled HLMs (0.5 mg/ml) or RLMs (1 mg/ml) and an NADPH-regenerating system; tissue Corning Gentest Corporation; host or cells: pooled human liver microsomes (n = 20)
Briefly: CYP2E1 inhibition (chlorzoxazone 6-hydroxylation) in pooled human liver microsomes, cocktail LC-MS/MS. It counts as in vitro ADME. Here is the method:
as §1, §2, §3, §4, §5

The conditions of data set [1]: rat, in vivo, po, 100 mg/kg; cited from earlier work.

T2 sequence (P05181 whole entry): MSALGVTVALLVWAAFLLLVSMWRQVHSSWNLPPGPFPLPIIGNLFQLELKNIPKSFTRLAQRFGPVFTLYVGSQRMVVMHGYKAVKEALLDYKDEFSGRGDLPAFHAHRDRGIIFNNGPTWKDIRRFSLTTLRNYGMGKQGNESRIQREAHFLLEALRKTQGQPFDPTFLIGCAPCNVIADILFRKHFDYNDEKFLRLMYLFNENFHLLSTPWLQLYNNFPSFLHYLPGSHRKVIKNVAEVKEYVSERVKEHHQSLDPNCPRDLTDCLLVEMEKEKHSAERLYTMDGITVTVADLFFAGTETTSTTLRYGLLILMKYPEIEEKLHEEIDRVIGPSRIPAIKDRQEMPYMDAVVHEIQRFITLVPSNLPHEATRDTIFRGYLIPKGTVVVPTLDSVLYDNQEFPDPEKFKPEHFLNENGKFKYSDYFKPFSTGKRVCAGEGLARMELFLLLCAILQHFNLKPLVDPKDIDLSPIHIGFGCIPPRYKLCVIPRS

One may read the IC50 as the midpoint of a concentration-inhibition curve. Read a low IC50 as higher potency. What is called Ki is a measure of affinity in units of concentration, obtained from inhibition or displacement. Read a low Ki as a stronger hold on the target. As a reminder, the Cmax is the maximum level reached in the sampled fluid or tissue. Turning to `CC1=CC(=O)c2c(O)cccc2C1=O` [plumbagin, 5-hydroxy-2-methyl-1,4-naphthoquinone], on CYP2C9, the IC50 is 10.9 µM, the Ki worked out at 2.16 µM and the Type of inhibition entry was “mixed-type”. This compound registered a αKi at CYP2C9 (HLMs, secondary plot of y-intercepts, tolbutamide 5-40 μM) of 1.46 µM. Also, the α at CYP2C9 (human, 20 min, pH 7.4) was 1.48. Moreover, on CYP2E1, half-maximal inhibition (IC50) required 6.54 µM, the Ki was 0.65 µM and the Type of inhibition result is reported as “mixed-type”. This compound had a αKi on CYP2E1 (HLMs, secondary plot of y-intercepts, chlorzoxazone 5-40 μM) of 2.64 µM. At CYP2E1 (human, 20 min, pH 7.4), this compound yielded a α of 0.25. For the same compound, in data set [1], the Cmax is 1860 nM, the “area under the curve (AUC) in the plasma” value was 271.9 µg·min/mL, the “half-life (t1/2) in the plasma” value is 17.13 h and the “peak concentration (Cmax) in the plasma” value is 350 ng/mL.
